Assay results from PMC9847078, “On the plasticity of amyloid formation: The impact of destabilizing small to large substitutions on islet amyloid polypeptide amyloid formation” (Protein Science : A Publication of the Protein Society, 2023).

Experiment: Peptide solubility measurement (micro‐BCA after centrifugation)
Format: physicochemical
Conditions: 200 μM peptide in 10 mM PBS (140 mM KCl), centrifuged 18,000 g 30 min, supernatant by micro‐BCA
Experimental: Dry peptides were dissolved in HFIP to prepare the stock solutions. The concentrations of the stock solutions were measured by using freeze dried aliquots of the stock solutions with the micro‐BCA assay. Based on the stock solution concentrations, aliquots were prepared and lyophilized. The dry peptides were reconstructed in 10 mM phosphate buffer saline (140 mM KCl), pH 7.4 at a final peptide concentration of 200 μM. Immediately after reconstitution 10 μl of the sample was removed and the soluble peptide concentration was measured using the micro‐BCA assay. […] After 5 days, a 450 μl portion from each sample were removed and centrifuged at 18,000 g for 30 min (25°C). A 100 μl portion of the centrifuged supernatant was subjected to the micro‐BCA assay to calculate the amount of soluble peptide left after 5 days.

Row | Structure (SMILES) | Apparent solubility: amount of peptide remaining in the solution (pH 7.4, stood 7 days at room temperature) | Apparent solubility compared to wild type hIAPP (pH 7.4, 25°C, 5 days, differences not significant (p > 0.05))
1 | CC[C@H](C)[C@H](NC(=O)[C@H](C)NC(=O)[C@@H]1CCCN1C(=O)[C@H](Cc1ccccc1)NC(=O)[C@H](CC(N)=O)NC(=O)[C@H](CC(N)=O)NC(=O)[C@H](CO)NC(=O)[C@H](CO)NC(=O)[C@H](Cc1c[nH]cn1)NC(=O)[C@@H](NC(=O)[C@H](CC(C)C)NC(=O)[C@H](Cc1ccccc1)NC(=O)[C@H](CC(N)=O)NC(=O)[C@H](C)NC(=O)[C@H](CC(C)C)NC(=O)[C@H](CCCNC(=N)N)NC(=O)[C@H](CCC(N)=O)NC(=O)[C@@H](NC(=O)[C@H](C)NC(=O)[C@@H]1CSSC[C@H](NC(=O)[C@@H](N)CCCCN)C(=O)N[C@@H](CC(N)=O)C(=O)N[C@@H]([C@@H](C)O)C(=O)N[C@@H](C)C(=O)N[C@@H]([C@@H](C)O)C(=O)N1)[C@@H](C)O)C(C)C)C(=O)N[C@@H](CC(C)C)C(=O)N[C@@H](CO)C(=O)N[C@@H](CO)C(=O)N[C@H](C(=O)N[C@@H](CC(N)=O)C(=O)N[C@H](C(=O)NCC(=O)N[C@@H](CO)C(=O)N[C@@H](CC(N)=O)C(=O)N[C@H](C(=O)N[C@@H](Cc1ccc(O)cc1)C(N)=O)[C@@H](C)O)C(C)C)[C@@H](C)O [G24P‐hIAPP] | greater than 50 μM | –
2 | CC[C@H](C)[C@H](NC(=O)[C@H](C)NC(=O)[C@H](CC(C)C)NC(=O)[C@H](Cc1ccccc1)NC(=O)[C@H](CC(N)=O)NC(=O)[C@H](CC(N)=O)NC(=O)[C@H](CO)NC(=O)[C@H](CO)NC(=O)[C@H](Cc1c[nH]cn1)NC(=O)[C@@H](NC(=O)[C@H](CC(C)C)NC(=O)[C@H](Cc1ccccc1)NC(=O)[C@H](CC(N)=O)NC(=O)[C@H](C)NC(=O)[C@H](CC(C)C)NC(=O)[C@H](CCCNC(=N)N)NC(=O)[C@H](CCC(N)=O)NC(=O)[C@@H](NC(=O)[C@H](C)NC(=O)[C@@H]1CSSC[C@H](NC(=O)[C@@H](N)CCCCN)C(=O)N[C@@H](CC(N)=O)C(=O)N[C@@H]([C@@H](C)O)C(=O)N[C@@H](C)C(=O)N[C@@H]([C@@H](C)O)C(=O)N1)[C@@H](C)O)C(C)C)C(=O)N[C@@H](CC(C)C)C(=O)N[C@@H](CO)C(=O)N[C@@H](CO)C(=O)N[C@H](C(=O)N[C@@H](CC(N)=O)C(=O)N[C@H](C(=O)NCC(=O)N[C@@H](CO)C(=O)N[C@@H](CC(N)=O)C(=O)N[C@H](C(=O)N[C@@H](Cc1ccc(O)cc1)C(N)=O)[C@@H](C)O)C(C)C)[C@@H](C)O [G24L‐hIAPP] | – | Slightly higher concentrations
